The results in this text go back to PMC5500991, “Substituted arylsulphonamides as inhibitors of perforin-mediated lysis” (European Journal of Medicinal Chemistry, 2017).

The target of data set [1] is T1, perforin delivered by KHYG1 NK cells (Homo sapiens, UniProt P14222).
T1 construct: The use of whole NK cells to deliver perforin provides a more realistic model of conditions in vivo; endogenous in cells; host or cells: KHYG1 human NK cells (effector); K562 leukemia target cells
T1 sequence (P14222 22-555): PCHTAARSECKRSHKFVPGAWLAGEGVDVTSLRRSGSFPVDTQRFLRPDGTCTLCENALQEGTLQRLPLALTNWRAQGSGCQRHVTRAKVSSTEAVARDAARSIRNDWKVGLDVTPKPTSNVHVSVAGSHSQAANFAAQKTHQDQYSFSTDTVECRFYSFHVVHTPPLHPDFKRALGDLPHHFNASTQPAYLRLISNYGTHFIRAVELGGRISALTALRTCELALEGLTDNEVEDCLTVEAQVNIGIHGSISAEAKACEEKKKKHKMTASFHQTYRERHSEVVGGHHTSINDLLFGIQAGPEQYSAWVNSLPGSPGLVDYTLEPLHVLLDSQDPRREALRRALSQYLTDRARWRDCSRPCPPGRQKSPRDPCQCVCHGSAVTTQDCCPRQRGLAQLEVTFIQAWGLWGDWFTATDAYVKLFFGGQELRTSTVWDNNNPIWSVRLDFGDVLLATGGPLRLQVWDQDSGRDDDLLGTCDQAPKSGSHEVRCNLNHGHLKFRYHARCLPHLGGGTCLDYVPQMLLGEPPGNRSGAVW
As to the kind of experiment: KHYG1 inhibitory assay: lysis of 51Cr-labelled K562 target cells by KHYG1 NK cells. Particulars: 51Cr-labelled K562 target cells co-incubated with KHYG1 human NK cells, vs untreated control, n = 4. Type of data set: cell-based. How it is done: The inhibitory function is then determined by identifying the number of untreated or inhibitor treated effector cells required to kill the same number of targets.

Data set [2] can be described thus: Toxicity to KHYG1 NK cells (Trypan blue exclusion). Type of data set: cell-based, human. Particulars: human, viability of KHYG1 NK cells after 24 h, n = 3. On the procedure:
The toxicity assay was carried out in exactly the same manner as the killing assay above, but instead of adding the labelled K562 target cells, 100 μL of RPMI 0.1% BSA was added. Cells were incubated for 4 h at 37 °C and then washed ×3 in RPMI + 0.1% BSA. […] Trypan blue was added to each well. Viable (clear) cells and total (clear + blue) cells were counted, and the percentage of viable cells was calculated compared to DMSO treated cell control (% viability).

The nature of data set [3]: Solubility of the sodium salt in water. The data set is classed as physicochemical. To be noted: sodium salt in water at room temperature. How it is done:
The compound was dissolved in water until it was no longer soluble in order to achieve a supersaturated concentration. The suspensions were sonicated for 15 min. prior to centrifugation at 13,000 revolutions per minute (rpm) for 6 minutes. Supernatants were removed and then recentrifuged prior to dilution of at least two fold in water to avoid precipitation during HPLC analysis.

`Cc1ccc(S(=O)(=O)Nc2ccccn2)cc1-c1ccc(-c2ccc3c(c2)CN(C)C3=O)s1` [Compound 16, Sodium (4-methyl-3-(5-(2-methyl-1-oxoisoindolin-5-yl)thiophen-2-yl)phenylsulfonyl)(pyridin-2-yl)amide]: the inhibition (commonly the percentage by which the read-out fell short of the control) at 10 µM in data set [1] stood at 0%. The viability (in general, a read-out of living cells in per cent, often relative to untreated cells) at 24 h, 10 µM in data set [2] amounted to 96.1 ± 6%.

Regarding `CN1Cc2cc(-c3ccc(-c4cc(NS(=O)(=O)c5ccccn5)ccc4F)s3)ccc2C1=O` [Compound 17, N-{4-Fluoro-3-[5-(2-methyl-1-oxo-2,3-dihydro-1H-isoindol-5-yl)-2-thienyl]phenyl}-2-pyridinesulfonamide], the inhibition at 10 µM in data set [1] turned out to be 0%. This compound came in with a viability at 24 h, 10 µM in data set [2] of 91.4 ± 6.5%.

In the case of `CN1Cc2cc(-c3ccc(-c4cnc(F)c(NS(=O)(=O)c5ccccn5)c4)s3)ccc2C1=O` [Compound 20, N-(2-Fluoro-5-(5-(2-methyl-1-oxoisoindolin-5-yl)thiophen-2-yl)pyridin-3-yl)pyridine-2-sulfonamide], the Solubility result in data set [3] is recorded as “significantly improved”.

Consider `CN1Cc2cc(-c3ccc(-c4cncc(NS(=O)(=O)c5ccc(C(F)(F)F)cc5)c4)s3)ccc2C1=O` [Compound 46, N-(5-(5-(2-Methyl-1-oxoisoindolin-5-yl)thiophen-2-yl)pyridin-3-yl)-4-(trifluoromethyl)benzenesulfonamide], for which the melting point (commonly the temperature, or range, at which the solid turns liquid) is 282 to 284 °C.

`CN1Cc2cc(-c3ccc(-c4cncc(NS(=O)(=O)c5cc(C(F)(F)F)cc(C(F)(F)F)c5)c4)s3)ccc2C1=O` [Compound 47, N-(5-(5-(2-Methyl-1-oxoisoindolin-5-yl)thiophen-2-yl)pyridin-3-yl)-3,5-bis(trifluoromethyl)benzenesulphonamide] had a melting point of 299 to 302 °C. The inhibition at 10 µM in data set [1] was 0%. The compound also yielded a viability at 24 h, 10 µM in data set [2] of 90.2 ± 3.4%.

Compound `CN1Cc2cc(-c3ccc(-c4cncc(NS(=O)(=O)c5ccccc5C#N)c4)s3)ccc2C1=O` [Compound 48, 2-Cyano-N-(5-(5-(2-methyl-1-oxoisoindolin-5-yl)thiophen-2-yl)pyridin-3-yl)benzenesulfonamide] had a melting point greater than 310 °C.

`COC(=O)c1ccccc1S(=O)(=O)Nc1cncc(-c2ccc(-c3ccc4c(c3)CN(C)C4=O)s2)c1` [Compound 51, Methyl 2-(N-(5-(5-(2-methyl-1-oxoisoindolin-5-yl)thiophen-2-yl)pyridin-3-yl)sulfamoyl)benzoate] had a melting point of 209 to 212 °C.

The compound `COC(=O)c1cccc(S(=O)(=O)Nc2cncc(-c3ccc(-c4ccc5c(c4)CN(C)C5=O)s3)c2)c1` [Compound 52, Methyl 3-(N-(5-(5-(2-methyl-1-oxoisoindolin-5-yl)thiophen-2-yl)pyridin-3-yl)sulfamoyl)benzoate] showed a melting point of 250 to 254 °C.

`COC(=O)c1ccc(S(=O)(=O)Nc2cncc(-c3ccc(-c4ccc5c(c4)CN(C)C5=O)s3)c2)cc1` [Compound 53, Methyl 4-(N-(5-(5-(2-methyl-1-oxoisoindolin-5-yl)thiophen-2-yl)pyridin-3-yl)sulfamoyl)benzoate] had a melting point of 269 to 272 °C.

The compound `CCOC(=O)c1ccc(S(=O)(=O)Nc2cncc(-c3ccc(-c4ccc5c(c4)CN(C)C5=O)s3)c2)cc1` [Compound 54, Ethyl 4-(N-(5-(5-(2-methyl-1-oxoisoindolin-5-yl)thiophen-2-yl)pyridin-3-yl)sulfamoyl)benzoate] yielded a melting point of 272 to 275 °C.

As to `CN1Cc2cc(-c3ccc(-c4cncc(NS(=O)(=O)c5ccccc5S(C)(=O)=O)c4)s3)ccc2C1=O` [Compound 56, N-(5-(5-(2-Methyl-1-oxoisoindolin-5-yl)thiophen-2-yl)pyridin-3-yl)-2-(methylsulfonyl)benzenesulfonamide], the melting point is 269 to 272 °C.

Turning to `CN1Cc2cc(-c3ccc(-c4cncc(NS(=O)(=O)c5ccc(S(C)(=O)=O)cc5)c4)s3)ccc2C1=O` [Compound 57, Sodium (5-(5-(2-methyl-1-oxoisoindolin-5-yl)thiophen-2-yl)pyridin-3-yl)((4-(methylsulfonyl)phenyl)sulfonyl)amide], the inhibition at 10 µM in data set [1] turned out to be 0%. Besides, the viability at 24 h, 10 µM in data set [2] was 90 ± 7.8%.

In turn, `CN1Cc2cc(-c3ccc(-c4cncc(NS(=O)(=O)c5cccc(Cl)c5F)c4)s3)ccc2C1=O` [Compound 60, 3-Chloro-2-fluoro-N-(5-(5-(2-methyl-1-oxoisoindolin-5-yl)thiophen-2-yl)pyridin-3-yl)benzenesulfonamide] had a melting point of 269 to 272 °C.

`Cc1cc(F)ccc1S(=O)(=O)Nc1cncc(-c2ccc(-c3ccc4c(c3)CN(C)C4=O)s2)c1` [Compound 61, 4-Fluoro-2-methyl-N-(5-(5-(2-methyl-1-oxoisoindolin-5-yl)thiophen-2-yl)pyridin-3-yl) benzenesulphonamide]: the melting point was 280 to 283 °C.

In turn, `Cc1ccc(S(=O)(=O)Nc2cncc(-c3ccc(-c4ccc5c(c4)CN(C)C5=O)s3)c2)cc1Cl` [Compound 63, 3-Chloro-4-methyl-N-(5-(5-(2-methyl-1-oxoisoindolin-5-yl)thiophen-2-yl)pyridin-3-yl)benzenesulfonamide] came in with a melting point of 277 to 279 °C.

With `CN1Cc2cc(-c3ccc(-c4cncc(NS(=O)(=O)c5ccc(C(F)(F)F)cc5Cl)c4)s3)ccc2C1=O` [Compound 64, 2-Chloro-N-(5-(5-(2-methyl-1-oxoisoindolin-5-yl)thiophen-2-yl)pyridin-3-yl)-4-(trifluoromethyl)benzenesulfonamide], the melting point was 292 to 295 °C.

In turn, `CN1Cc2cc(-c3ccc(-c4cncc(NS(=O)(=O)c5cc(Br)cc(C(F)(F)F)c5)c4)s3)ccc2C1=O` [Compound 65, 3-Bromo-N-(5-(5-(2-methyl-1-oxoisoindolin-5-yl)thiophen-2-yl)pyridin-3-yl)-5-(trifluoromethyl)benzenesulphonamide] returned a melting point of 280 to 283 °C.

In turn, `CN1Cc2cc(-c3ccc(-c4cncc(NS(=O)(=O)c5ccccn5)c4)s3)ccc2C1=O` [Compound 66, N-(5-(5-(2-Methyl-1-oxoisoindolin-5-yl)thiophen-2-yl)pyridin-3-yl)pyridine-2-sulfonamide] registered a melting point of 272 to 275 °C.

`CN1Cc2cc(-c3ccc(-c4cncc(NS(=O)(=O)c5cccnc5)c4)s3)ccc2C1=O` [Compound 67, N-(5-(5-(2-Methyl-1-oxoisoindolin-5-yl)thiophen-2-yl)pyridin-3-yl)pyridine-3-sulfonamide] showed a melting point of 283 to 286 °C.

For the compound `CN1Cc2cc(-c3ccc(-c4cncc(NS(=O)(=O)c5cccs5)c4)s3)ccc2C1=O` [Compound 68, N-(5-(5-(2-Methyl-1-oxoisoindolin-5-yl)thiophen-2-yl)pyridin-3-yl)thiophene-2-sulfonamide], the melting point lay within 300 to 304 °C.

Consider `CN1Cc2cc(-c3ccc(-c4cncc(NS(=O)(=O)c5ccsc5)c4)s3)ccc2C1=O` [Compound 69, N-(5-(5-(2-Methyl-1-oxoisoindolin-5-yl)thiophen-2-yl)pyridin-3-yl)thiophene-3-sulfonamide], for which the melting point is greater than 300 °C.

Regarding `CN1Cc2cc(-c3ccc(-c4cncc(NS(=O)(=O)c5ccc(-c6cnco6)cc5)c4)s3)ccc2C1=O` [Compound 70, N-(5-(5-(2-Methyl-1-oxoisoindolin-5-yl)thiophen-2-yl)pyridin-3-yl)-4-(oxazol-5-yl)benzenesulfonamides], the melting point was in the range of 278 to 281 °C.

As to `CN1Cc2cc(-c3ccc(-c4cncc(NS(=O)(=O)c5ccc(-c6ccno6)s5)c4)s3)ccc2C1=O` [Compound 71, 5-(Isoxazol-5-yl)-N-(5-(5-(2-methyl-1-oxoisoindolin-5-yl)thiophen-2-yl)pyridin-3-yl)thiophene-2-sulfonamide], the melting point was in the range of 245 to 249 °C.

`Cc1cc(C)n(-c2ccc(S(=O)(=O)Nc3cncc(-c4ccc(-c5ccc6c(c5)CN(C)C6=O)s4)c3)cc2)n1` [Compound 72, 4-(3,5-Dimethyl-1H-pyrazol-1-yl)-N-(5-(5-(2-methyl-1-oxoisoindolin-5-yl)thiophen-2-yl)pyridin-3-yl)benzenesulfonamide] showed a melting point of 265 to 268 °C.

`Cc1ncsc1S(=O)(=O)Nc1cncc(-c2ccc(-c3ccc4c(c3)CN(C)C4=O)s2)c1` [Compound 74, 4-Methyl-N-(5-(5-(2-methyl-1-oxoisoindolin-5-yl)thiophen-2-yl)pyridin-3-yl)thiazole-5-sulphonamide]: the melting point lay within 277 to 280 °C.
